From patent US10322131B2, “Hydroxyacid derivatives, a process for their preparation and pharmaceutical compositions containing them” (LES LABORATOIRES SERVIER, priority 2015, dated 2019)
Read-outs that look alike come from different tables or passages of the source.

What was measured:
H929 cells = assay: In vitro cytotoxicity (MTT) on H929 multiple myeloma tumour line; type: cell-based; conditions: Microculture Tetrazolium Assay
Description: The cytotoxicity studies were carried out on the H929 multiple myeloma tumour line.
The cells are distributed onto microplates and exposed to the test compounds for 48 hours.
The cell viability is then quantified by a colorimetric assay, the Microculture Tetrazolium Assay (Cancer Res., 1987, 47, 939-942).

Mcl-1 protein = Mcl-1 protein (Homo sapiens, UniProt Q07820); assay: Inhibition of Mcl-1 by the fluorescence polarisation technique; type: binding
Description: The relative binding potency of each compound was determined via Fluorescence Polarisation (FP). The method utilised a Fluorescein labelled ligand (Fluorescein-βAla-Ahx-A-REIGAQLRRMADDLNAQY-OH; mw 2,765) which binds to the Mcl-1 protein (such that Mcl-1 corresponds to the UniProtKB® primary accession number: Q07820) leading to an increased anisotropy measured in milli-polarisation (mP) units using a reader. The addition of a compound which binds competitively to the same site as the ligand will result in a greater proportion of unbound ligand in the system indicated by a decrease in mP units.
An 11 point serial dilution of each compound was prepared in DMSO and 2 μl transferred into flat bottomed, low binding, 384-well plate (final DMSO concentration 5%). 38 μl of buffer (10 mM 4-(2-hydroxyethyl)-1-piperazineethanesulfonic acid [HEPES], 150 mM NaCl, 0.05% Tween 20, pH 7.4), containing the Fluorescein labelled ligand (final concentration 1 nM) and Mcl-1 protein (final concentration 5 nM) was then added.
Assay plates were incubated ˜2 hours at r.t. before FP was measured on a Biomek Synergy2 reader (Ex. 528 nm, Em. 640 nm, Cut off 510 nm) and mP units calculated. The binding of increasing doses of test compound was expressed as a percentage reduction in mP compared to a window established between ‘5% DMSO only’ and ‘100% inhibition’ controls. 11-point dose response curves were plotted with XL-Fit software using a 4-Parameter Logistic Model (Sigmoidal Dose-Response Model) and the inhibitory concentrations that gave a 50% reduction in mP (IC50) were determined.

[1] = fluorescence polarisation test, Fluorescein labelled ligand 1 nM, Mcl-1 protein 5 nM, ~2 hours at r.t., read-out: IC50 (M) Mcl-1 FP
[2] = Homo sapiens, NCI-H929, exposed 48 hours

Mcl-1 protein, sequence (Q07820 whole entry): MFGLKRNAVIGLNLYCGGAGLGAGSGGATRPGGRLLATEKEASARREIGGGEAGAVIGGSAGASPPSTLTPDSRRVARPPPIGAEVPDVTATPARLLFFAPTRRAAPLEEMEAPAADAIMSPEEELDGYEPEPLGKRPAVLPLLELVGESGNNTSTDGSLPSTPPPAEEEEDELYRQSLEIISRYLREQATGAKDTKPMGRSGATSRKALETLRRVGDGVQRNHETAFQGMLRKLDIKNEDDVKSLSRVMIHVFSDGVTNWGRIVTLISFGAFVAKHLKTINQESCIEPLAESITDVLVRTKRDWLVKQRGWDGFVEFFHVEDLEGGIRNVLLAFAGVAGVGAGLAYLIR

COCc1ccccc1-c1nccc(COc2ccccc2C[C@@H](Oc2ncnc3sc(-c4ccc(F)cc4)c(-c4ccc(OCCN5CCN(C)CC5)c(Cl)c4C)c23)C(=O)O)n1 [Example 8, (2R)-2-{[(5Sa)-5-{3-chloro-2-methyl-4-[2-(4-methylpiperazin-1-yl)ethoxy]phenyl}-6-(4-flurophenyl)thieno[2,3-d]pyrimidin-4-yl]oxy}-3-[2-({2-[2-(methoxymethyl)phenyl]pyrimidin-4-yl}methoxy)phenyl]propanoic acid]
IC50 (H929 cells; exposed 48 hours): 2.07 nM
IC50 (Mcl-1 protein; [1]): 7.35e-09 M

Cc1c(-c2c(-c3ccc(F)cc3)sc3ncnc(O[C@H](Cc4ccccc4OCc4ccnc(-c5ccc(OCCN(C)C)cc5)n4)C(=O)O)c23)ccc(OCCN2CCN(C)CC2)c1Cl [Example 34, (2R)-2-{[(5Sa)-5-{3-chloro-2-methyl-4-[2-(4-methylpiperazin-1-yl)ethoxy]phenyl}-6-(4-flurophenyl)thieno[2,3-d]pyrimidin-4-yl]oxy}-3-{2-[(2-{4-[2-(dimethylamino)ethoxy]phenyl}pyrimidin-4-yl)methoxy]phenyl}propanoic acid]
IC50 (H929 cells; exposed 48 hours): 4.76 nM
IC50 (Mcl-1 protein; [1]): 7.1e-09 M

COC1OC(COc2cccc(-c3nccc(COc4ccccc4CC(Oc4ncnc5sc(-c6ccc(F)cc6)c(-c6ccc(OCCN7CCN(C)CC7)c(Cl)c6C)c45)C(=O)O)n3)c2)C(OC)C(OC)C1OC [Example 17, methyl 6-O-{3-[4-({2-[(2R)-2-carboxy-2-{[(5Sa)-5-{3-chloro-2-methyl-4-[2-(4methylpiperazin-1-yl)ethoxy]phenyl}-6-(4-fluorophenyl)thieno[2,3-d]pyrimidin-4-yl]oxy}ethyl]phenoxy}methyl)pyrimidin-2-yl]phenyl}-2,3,4-tri-O-methyl-α-D-mannopyranoside]
IC50 (H929 cells; [2]): 3.03 nM
IC50 (Mcl-1 protein; [1]): 4.8e-09 M

COCCOCCOc1ccc(-c2nccc(COc3ccccc3CC(Oc3ncnc4sc(-c5ccc(F)cc5)c(-c5ccc(OCCN6CCN(C)CC6)c(Cl)c5C)c34)C(=O)O)n2)cc1 [Example 31, (2R)-2-{[(5Sa)-5-{3-chloro-2-methyl-4-[2-(4-methylpiperazin-1-yl)ethoxy]phenyl}-6-(4-fluorophenyl)thieno[2,3-d]pyrimidin-4-yl]oxy}-3-{2-[(2-{4-[2-(2-methoxyethoxy)ethoxy]phenyl}pyrimidin-4-yl)methoxy]phenyl}propanoic acid]
IC50 (H929 cells; [2]): 1.68 nM
IC50 (Mcl-1 protein; [1]): 3.85e-09 M

Cc1c(-c2c(-c3ccc(F)cc3)sc3ncnc(OC(Cc4ccccc4OCc4ccnc(-c5ccc(OP(=O)(O)O)cc5)n4)C(=O)O)c23)ccc(OCCN2CCN(C)CC2)c1Cl [Example 29, 4-[4-({2-[(2R)-2-carboxy-2-{[(5Sa)-5-{3-chloro-2-methyl-4-[2-(4-methylpiperazin-1-yl)ethoxy]phenyl}-6-(4-fluorophenyl)thieno[2,3-d]pyrimidin-4-yl]oxy}ethyl]phenoxy}methyl)pyrimidin-2-yl]phenyl phosphate]
IC50 (H929 cells; [2]): 22.7 nM
IC50 (Mcl-1 protein): 4.6e-09 M

Cc1c(-c2c(-c3ccc(F)cc3)sc3ncnc(OC(Cc4ccccc4OCc4ccnc(-c5ccccc5COCCO)n4)C(=O)O)c23)ccc(OCCN2CCN(C)CC2)c1Cl [Example 10, (2R)-2-{[(5Sa)-5-{3-chloro-2-methyl-4-[2-(4-methylpiperazin-1-yl)ethoxy]phenyl}-6-(4-fluorophenyl)thieno[2,3-d]pyrimidin-4-yl]oxy}-3-{2-[(2-{2-[(2-hydroxyethoxy)methyl]phenyl}pyrimidin-4-yl)methoxy]phenyl}propanoic acid]
IC50 (H929 cells; [2]): 2.79 nM
IC50 (Mcl-1 protein; [1]): 1.09e-08 M

COC1OC(COc2ccc(-c3nccc(COc4ccccc4CC(Oc4ncnc5sc(-c6ccc(F)cc6)c(-c6ccc(OCCN7CCN(C)CC7)c(Cl)c6C)c45)C(=O)O)n3)cc2)C(OC)C(OC)C1OC [Example 19, methyl 6-O-{4-[4-({2-[(2R)-2-carboxy-2-{[(5Sa)-5-{3-chloro-2-methyl-4-[2-(4-methylpiperazin-1-yl)ethoxy]phenyl}-6-(4-fluorophenyl)thieno[2,3-d]pyrimidin-4-yl]oxy}ethyl]phenoxy}methyl)pyrimidin-2-yl]phenyl}-2,3,4-tri-O-methyl-α-D-mannopyranoside]
IC50 (H929 cells; [2]): 2.47 nM
IC50 (Mcl-1 protein; [1]): 4.95e-09 M
